Test results from publication PMC9664485 (European journal of medicinal chemistry, 2022).
“And” between values parts separate entries of the source, which are not always exact repeats. Equal entries are not always repeated.

Target: T1, recombinant human Wip1 (1–420) (Homo sapiens, UniProt O15297)
T1 sequence (O15297 1-420): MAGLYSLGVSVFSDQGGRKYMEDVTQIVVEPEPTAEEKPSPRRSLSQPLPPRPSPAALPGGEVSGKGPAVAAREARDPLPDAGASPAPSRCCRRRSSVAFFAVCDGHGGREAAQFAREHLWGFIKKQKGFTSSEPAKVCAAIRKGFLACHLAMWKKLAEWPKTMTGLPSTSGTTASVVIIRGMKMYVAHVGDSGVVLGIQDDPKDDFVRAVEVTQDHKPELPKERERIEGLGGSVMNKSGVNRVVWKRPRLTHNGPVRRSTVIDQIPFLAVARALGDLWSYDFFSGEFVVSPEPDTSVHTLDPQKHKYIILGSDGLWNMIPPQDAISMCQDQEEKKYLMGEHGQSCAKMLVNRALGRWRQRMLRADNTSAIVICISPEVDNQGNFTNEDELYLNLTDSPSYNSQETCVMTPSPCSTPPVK
Assay: Wip1 phosphatase activity inhibition assay
Assay type: biochemical

[1] = variable slope logistic fit of Wip1 inhibition curve
[2] = fixed-slope logistic curve, which assumes the Hill coefficient = 1 (footnote a)

Nc1ccccc1CC1CCCCC1 [Compound 10, 2-(cyclohexylmethyl)aniline]
Wip1 inhibitory activity (in words): did not have significant inhibitory activity

Nc1ccccc1CCC1CCCCC1 [Compound 12, 2-(2-cyclohexylethyl)aniline]
Wip1 inhibitory activity (in words): did not have significant inhibitory activity

O=C(O)c1cccc(CNc2ccccc2CC2CCCCC2)c1 [Compound 14, 3-(((2-(cyclohexylmethyl)phenyl)amino)methyl)benzoic acid]
Wip1 inhibitory activity (in words): modest inhibition | Hill coefficient [n] [1]: 1.9 ± 0.4

COC(=O)c1ccc(NCc2cccc(C(=O)O)c2)c(CC2CCCCC2)c1 [Compound 15, 3-(((2-(cyclohexylmethyl)-4-(methoxycarbonyl)phenyl)amino)methyl)benzoic acid]
Hill coefficient [n] [1]: 2.8 ± 0.5

O=C(O)c1cccc(CNc2ccccc2CCC2CCCCC2)c1 [Compound 16, 3-(((2-(2-cyclohexylethyl)phenyl)amino)methyl)benzoic acid]
Wip1 inhibitory activity (in words): modest inhibition

COC(=O)c1ccc(NCc2cccc(C(=O)O)c2)c(CCC2CCCCC2)c1 [Compound 17, 3-(((2-(2-cyclohexylethyl)-4-(methoxycarbonyl)phenyl)amino)methyl)benzoic acid]
Hill coefficient [n] [1]: 4.4 ± 0.4

Nc1ccc(C(=O)Nc2cccc(OP(=O)(O)O)c2)cc1CC1CCCCC1 [Compound 22a, 3-(4-amino-3-(cyclohexylmethyl)benzamido)phenyl dihydrogen phosphate]
Hill coefficient [n] [1]: 1.2 ± 0.10

CCCCC(CCCC)CNc1ccc(C(=O)Nc2cccc(OP(=O)(O)O)c2)cc1CC1CCCCC1 [Compound 22b, 3-(4-((2-butylhexyl)amino)-3-(cyclohexylmethyl)benzamido)phenyl dihydrogen phosphate]
Hill coefficient [n] [2]: 1^a

O=C(Nc1cccc(OP(=O)(O)O)c1)c1ccc(NCCCc2ccccc2)c(CC2CCCCC2)c1 [Compound 22c, 3-(3-(cyclohexylmethyl)-4-((3-phenylpropyl)amino)benzamido)phenyl dihydrogen phosphate]
IC50: 165 µM | Hill coefficient [n] [2]: 1^a

COc1ccc(CNc2ccc(C(=O)Nc3cccc(OP(=O)(O)O)c3)cc2CC2CCCCC2)cc1 [Compound 22d, 3-(3-(cyclohexylmethyl)-4-((4-methoxybenzyl)amino)benzamido)phenyl dihydrogen phosphate]
Hill coefficient [n] [1]: 2.0 ± 0.2

COc1cccc(CNc2ccc(C(=O)Nc3cccc(OP(=O)(O)O)c3)cc2CC2CCCCC2)c1 [Compound 22e, 3-(3-(cyclohexylmethyl)-4-((3-methoxybenzyl)amino)benzamido)phenyl dihydrogen phosphate]
Hill coefficient [n] [1]: 1.3 ± 0.3

O=C(Nc1cccc(OP(=O)(O)O)c1)c1ccc(NCc2cccc(F)c2)c(CC2CCCCC2)c1 [Compound 22f, 3-(3-(cyclohexylmethyl)-4-((3-fluorobenzyl)amino)benzamido)phenyl dihydrogen phosphate]
Hill coefficient [n] [1]: 3.4 ± 0.4

O=C(Nc1cccc(OP(=O)(O)O)c1)c1ccc(NCc2ccc(F)cc2)c(CC2CCCCC2)c1 [Compound 22g, 3-(3-(cyclohexylmethyl)-4-((4-fluorobenzyl)amino)benzamido)phenyl dihydrogen phosphate]
Hill coefficient [n] [1]: 3 and 3.0 ± 0.4

O=C(Nc1cccc(OP(=O)(O)O)c1)c1ccc(NCc2ccc3ccccc3c2)c(CC2CCCCC2)c1 [Compound 22h, 3-(3-(cyclohexylmethyl)-4-((naphthalen-2-ylmethyl)amino)benzamido)phenyl dihydrogen phosphate]
Wip1 inhibitory activity (in words): weak activity | Hill coefficient [n] [2]: 1^a

COc1cc(OC)cc(-c2ccc(CNc3ccc(C(=O)Nc4cccc(OP(=O)(O)O)c4)cc3CC3CCCCC3)cc2)c1 [Compound 22j, 3-(3-(cyclohexylmethyl)-4-(((3’,5’-dimethoxy-[1,1’-biphenyl]-4-yl)methyl)amino)benzamido)phenyl dihydrogen phosphate]
Hill coefficient [n] [1]: 1.8 ± 0.1

O=C(Nc1cccc(OP(=O)(O)O)c1)c1ccc(NCc2ccc(-c3cccc(Cl)c3)cc2)c(CC2CCCCC2)c1 [Compound 22k, 3-(4-(((3’-chloro-[1,1’-biphenyl]-4-yl)methyl)amino)-3-(cyclohexylmethyl)benzamido)phenyl dihydrogen phosphate]
Hill coefficient [n] [1]: 1.3 ± 0.2

O=C(Nc1cccc(OP(=O)(O)O)c1)c1ccc(NCc2ccc(-c3cccc(F)c3)cc2)c(CC2CCCCC2)c1 [Compound 22l, 3-(3-(cyclohexylmethyl)-4-(((3’-fluoro-[1,1’-biphenyl]-4-yl)methyl)amino)benzamido)phenyl dihydrogen phosphate]
Hill coefficient [n] [1]: 1.7 ± 0.4

O=C(Nc1cccc(OP(=O)(O)O)c1)c1ccc(NCc2cc3ccccc3o2)c(CC2CCCCC2)c1 [Compound 22m, 3-(4-((benzofuran-2-ylmethyl)amino)-3-(cyclohexylmethyl)benzamido)phenyl dihydrogen phosphate]
Hill coefficient [n] [1]: 1.5 ± 0.1

O=C(Nc1cccc(OP(=O)(O)O)c1)c1ccc(NCc2cccnc2)c(CC2CCCCC2)c1 [Compound 22n, 3-(3-(cyclohexylmethyl)-4-((pyridin-3-ylmethyl)amino)benzamido)phenyl dihydrogen phosphate]
fold less active (Wip1 IC50) (compared with 22m): 5 fold | Hill coefficient [n] [1]: 1.6 ± 0.2

O=C(Nc1cccc(OP(=O)(O)O)c1)c1ccc(NCc2ccc(F)cc2)c(Cc2ccccc2)c1 [Compound 29a, 3-(3-benzyl-4-((4-fluorobenzyl)amino)benzamido)phenyl dihydrogen phosphate]
fold loss in activity (Wip1 IC50) (compared with 22g): 3 fold | Hill coefficient [n] [1]: 1.7 ± 0.1

O=C(Nc1cccc(OP(=O)(O)O)c1)c1ccc(NCc2ccc(F)cc2)cc1 [Compound 29b, 3-(4-((4-fluorobenzyl)amino)benzamido)phenyl dihydrogen phosphate]
Wip1 inhibitory activity (in words): almost complete loss of inhibitory activity | Hill coefficient [n] [2]: 1^a

O=C(Nc1ccc(OP(=O)(O)O)cc1)c1ccc(NCc2ccc(F)cc2)c(CC2CCCCC2)c1 [Compound 32a, 4-(3-(cyclohexylmethyl)-4-((4-fluorobenzyl)amino)benzamido)phenyl dihydrogen phosphate]
Wip1 inhibitory activity (in words): comparable inhibitory activity with the parent compound 22g | Hill coefficient [n] [1]: 3.4 ± 0.4

O=C(Nc1cccc(Cl)c1)c1cccc(CNc2ccc(C(=O)Nc3cccc(O)c3)cc2CCC2CCCCC2)c1 [Compound 38c, 4-((3-((3-chlorophenyl)carbamoyl)benzyl)amino)-3-(2-cyclohexylethyl)-N-(3-hydroxyphenyl)benzamide]
Wip1 inhibitory activity (in words): considerable drop in activity | Hill coefficient [n] [2]: 1^a

O=C(Nc1cccc(Cl)c1)c1ccc(CNc2ccc(C(=O)Nc3cccc(OP(=O)(O)O)c3)cc2CC2CCCCC2)cc1 [Compound 40a, 3-(4-((4-((3-chlorophenyl)carbamoyl)benzyl)amino)-3-(cyclohexylmethyl)benzamido)phenyl dihydrogen phosphate]
Hill coefficient [n] [1]: 1.9 ± 0.2

O=C(Nc1cccc(Cl)c1)c1cccc(CNc2ccc(C(=O)Nc3cccc(OP(=O)(O)O)c3)cc2CCC2CCCCC2)c1 [Compound 40c, 3-(4-((3-((3-chlorophenyl)carbamoyl)benzyl)amino)-3-(2-cyclohexylethyl)benzamido)phenyl dihydrogen phosphate]
Hill coefficient [n] [1]: 1.0 ± 0.1
